Source: PubChem BioAssay (NCI)
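Step 1: Grow cells in 96-well plates. Step 2: Expose to compound for 48 hours at 5 concentrations. Step 3: Interpolate endpoints linearly; if unreached, use highest concentration. At the GI50, growth is halved. Definition used: TGI = concentration required for complete inhibition of growth.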

How the values were obtained:
Experiment in all cases: DTP human tumour cell line panel, 48 h
[1] = test system: ACHN renal
[2] = test system: CCRF-CEM leukemia
[3] = test system: HOP-62 NSCLC
[4] = test system: LOX IMVI melanoma
[5] = test system: MCF7 breast
[6] = test system: NCI/ADR-RES ovarian
[7] = test system: EKVX NSCLC
[8] = test system: HCT-116 colon
[9] = test system: HS 578T breast
[10] = test system: CAKI-1 renal

Compound	TGI [1] [µM]	TGI [2] [µM]	TGI [3] [µM]	TGI [4] [µM]	TGI [5] [µM]	TGI [6] [µM]	TGI [7] [µM]	TGI [8] [µM]	TGI [9] [µM]	TGI [10] [µM]	GI50 [1] [µM]	GI50 [2] [µM]	GI50 [3] [µM]	GI50 [4] [µM]	GI50 [5] [µM]	GI50 [6] [µM]	GI50 [7] [µM]	GI50 [8] [µM]	GI50 [9] [µM]	GI50 [10] [µM]
Nc1[nH]nc2nc3ccccc3nc12	> 100	> 100	> 100	> 100	> 100	> 100	> 100	> 100	> 100	> 100										
O=C(N/N=C\c1ccc(N(CCCl)CCCl)cc1[N+](=O)[O-])c1cccnc1	> 100	> 100	> 100	> 100	> 100	> 100	> 100	> 100	> 100	> 100	> 100	> 100	> 100	> 100	> 100	> 100	> 100	> 100	> 100	> 100
O=C(Nc1cccc([N+](=O)[O-])c1)c1n[nH]n(-c2cccc([N+](=O)[O-])c2)c1=O	> 100	> 100	> 100	> 100	> 100	> 100	> 100	> 100	> 100	> 100										
CCOC(=O)C(NC(=O)c1ccccc1)(N1CCN(c2cc3c(cc2F)c(=O)c(C(=O)O)cn3CC)CC1)C(F)(F)F (centres undefined)	> 100	86.2	> 100	35.4	69.2	> 100	49	> 100	> 100	48.4										
Cn1cc(-c2ccc3cc(-c4ccc(CC(=O)Nc5cc(C(C)(C)C)on5)cc4)cnc3c2)cn1		> 100	> 100	10.9	17.8	5.11	3.45		15.2	3.45		2.17	2.54	0.945	1.92	1.84	0.624		0.397	0.426
NC1=Nc2cc(Cl)ccc2Sc2nc3ccccc3n21	> 100	19.4	> 100	> 100	> 100	> 100	> 100		> 100	> 100										
CC(=O)Oc1c(N2CCCCC2)c(C(=O)c2ccccc2)c(O)c2ccn(N(C)C)c12	40.2	76.1	93.2	33.1	30.6	42.3	31.2	22.5	66.8	33.8										
O=c1ccn(C2OC(CO)C(O)C2F)c(=O)n1Cc1ccccc1 (centres undefined)	> 100	> 100	> 100	> 100	> 100	> 100	> 100	> 100	> 100	> 100										
CC(=O)Oc1c2c(c3n(c1=O)CCCC3)C(=O)N(c1ccccc1)C2=O	> 100	> 100	> 100	> 100	> 100	> 100	> 100	> 100	> 100	> 100										
CC1(C)CCC(C)(C)C1C(=O)NC(O)C(=O)O (centres undefined)	> 100	> 100	> 100	> 100	> 100	> 100	> 100	> 100	> 100											
CC(=O)Oc1ccc2c(c1)CC[C@@H]1C2[C@@H](O[N+](=O)[O-])C[C@@]2(C)C1CC[C@@H]2O[N+](=O)[O-] (some centres undefined)	22	38.8	15.5	28.9	22.4	33.6	26.6	23.2	47.7	33.6										
O=C(N=c1ccc2nc(=O)[nH]n(O)c-2c1)C(F)(F)F	> 100	> 100	> 100	> 100	> 100	> 100	> 100	> 100	> 100	> 100										
CCOC(=O)C(Cc1ccc(OC(=O)OC(C)(C)C)cc1)NC(=O)OC(C)(C)C (centres undefined)	> 100	> 100	> 100	> 100	> 100	> 100	> 100	> 100	> 100	> 100										
COC(=O)c1ccc(C)cc1CC1Cc2ccc(C)cc2C1=O (centres undefined)	80.8	74.5	> 100	14.8	19.9	18.3	36.6	19	48.9	> 100										
COc1cc2c3c(n(C)c(=O)c2cc1OC)-c1cc2c(cc1/C3=C\CCCI)OCO2	> 85.3	> 100	> 100	> 100	> 100	> 100	> 100	> 100	> 75.5	> 100										
Cc1cccc(N2C(=O)C3c4[nH]c5ccccc5c4C4CCC(C(C)(C)C)CC4C3C2=O)c1 (centres undefined)	17.7	23.5	13.3	12.9	24.5	32.2	31.4	21.2	29.2	26.1										
Cc1ccc(C(=O)Nc2ccc(CP(=O)(O)O)cc2CP(=O)(O)O)cc1NC(=O)Nc1cc(C(=O)Nc2ccc(CP(=O)(O)O)cc2CP(=O)(O)O)ccc1C	> 100	> 100	> 100	> 100	> 100	> 100	> 100	> 100	> 100	> 100										
CC(C)=CCc1[nH]c2ccccc2c1C1=C(O)C(=O)C(c2c(CC=C(C)C)[nH]c3ccccc23)=C(O)C1=O	3.95	6.83	2.61	4.22	9.4	17.3	7.59	3.78	73.8	6.26										
CC(C)(C)OC(=O)CN1CCNCCN(CC(=O)OC(C)(C)C)CCNCC1	> 100	> 100	> 100	> 100	> 100	> 100	> 100	> 100	> 100	> 100										
CCOC(=O)NC(OC)(C(F)(F)F)C(F)(F)F	> 100	> 100	> 100	> 100	> 100	> 100	> 100	> 100	> 100	> 100										
